{"source": "paper PMC8373983", "about": "“Effect of salinity on the zinc(II) binding efficiency of siderophore functional groups and implications for salinity tolerance mechanisms in barley” (Scientific Reports, 2021)", "key": {"[1]": {"experiment": "Zinc(II)-ligand stability constants, potentiometric titration in NaCl", "format": "binding", "experimental": "(§1) Potentiometric measurements were carried out at T = 298.1 ± 0.1 K in thermostatted cells. The setup consisted of a Metrohm model 888 Titrando apparatus controlled by Metrohm TiAMO 1.2 software equipped with a combined gel electrode (VWR model 662 1759). Estimated precision was 0.2 mV and 0.003 ml for the electromotive force and titrant volume readings, respectively. All the potentiometric titrations were carried out under magnetic stirring and bubbling purified presaturated N2 through the solution to exclude O2 and CO2.\n(§2) A 30 ml solution containing each ligand ([L] = 5 – 10 mM), NaCl and HCl was titrated with standard NaOH solutions. For the zinc(II)/ligand systems, the titrant solutions consisted of different amounts of ligand ([L] = 5 − 10 mM), zinc(II) ([Zn] = 0.5—5 mM) and a suitable amount of HCl and NaCl. All the measurements were carried out with an excess of the ligand, with respect to zinc(II) and at different zinc(II):ligand molar ratios. The selection of ratios investigated was determined by simulating titrations using Hyperquad Simulation and Speciation computer software (HySS)[41]. [Zn] and [L] were negligible compared to the background electrolyte concentrations. […] To account for the influence of zinc(II) hydrolysis in the zinc(II)/ligand systems, zinc(II) titrations were carried out separately at each ionic strength to determine the hydroxide constants so that these constants could be included in the equilibrium model used to refine the titration data. In these titrations, the zinc(II) concentration in the analyte solution was 0.7 mM.\n(§3) Before each experiment, independent titrations of strong acid solutions with standard base were carried out under the same medium and ionic strength conditions as the systems to be investigated, with the aim of determining the electrode potential (E^0’) using GLEE software. In this way, the pH scale used was the […], pH = -log [H]^+, where [H]^+ is the free proton concentration. For each titration, approximately 80 to 100 data points were collected. The equilibrium state during titrations was checked by confirming the time required to reach equilibrium.\n(§4) The software program Hyperquad was used to determine the equilibrium model and to calculate pKa and stability constants from the potentiometric data set[43]. For each set of pKa constants or zinc(II):ligand ratio studied, at least two repeat titrations were performed. The titration curves for each system were treated as a single set when refining the stability constants. This meant that the refinement procedure was run on both curves at the same time to derive a single set of constants. The error reported on the stability constants is the standard deviation given in the Hyperquad output file. Examples of Hyperquad files for the zinc(II)/PYR system are provided on the Zenodo repository (https://doi.org/10.5281/zenodo.4641710).\n(§5) The ionic strength dependence of the stability constants was studied with the modified version of the Extended Debye–Hückel equation[28]. The Monte Carlo method, as described by Hu et al.[43], was used to estimate 95% confidence intervals on the parameters of ionic strength dependence; for each species, predicted stability constants were resampled using an inverse of the cumulative normal distribution function to give sets of simulated data from which the unknown parameters were optimized. An example Excel calculation file for the application of the modified version of the Extended Debye–Hückel equation to the zinc(II)/PYR system (including the calculation of error on parameters of ionic strength dependence) has been uploaded to the Zenodo repository (https://doi.org/10.5281/zenodo.4641710).\n(§6) To quantify the improvement of using a direct vs. indirect method for studying ionic strength dependence, the Davies equation (Eq. 3) was applied to the zinc(II)/PYR data. Speciation calculations for a [Zn] = 10^–6 M and [L] = 10^–5 M system at infinite dilution were conducted with the aid of HySS. […]"}, "[2]": {"experiment": "Ligand protonation constants, potentiometric titration in NaCl", "format": "physicochemical", "details": "T = 298.1 K", "experimental": "as §1, §2, §3, §4, §5, §6"}, "[3]": {"details": "parameter of ionic strength dependence, NaCl"}}}
{"smiles": "CC(=O)NO", "note": "[AHA, acetohydroxamic acid]", "values": [{"measurement": "log β, Zn2+ + 2L = ZnL2", "setting": "[1]; 0.05 M NaCl, T = 298.1 K", "result": "9.60±0.01"}, {"measurement": "log β, Zn2+ + 2OH- + L- = ZnOH2L-", "setting": "[1]; 0.05 M NaCl, T = 298.1 K", "result": "-13.60±0.04"}, {"measurement": "log β, Zn2+ + L = ZnL (1:1)", "setting": "[1]; 0.05 M NaCl, T = 298.1 K", "result": "5.32±0.01"}, {"measurement": "log β, Zn2+ + OH- + L- = ZnOHL", "setting": "[1]; 0.05 M NaCl, T = 298.1 K", "result": "-3.22±0.04"}, {"measurement": "log β, Zn2+ + 2L = ZnL2", "setting": "[1]; 0.15 M NaCl, T = 298.1 K", "result": "9.16±0.01"}, {"measurement": "log β, Zn2+ + 2OH- + L- = ZnOH2L-", "setting": "[1]; 0.15 M NaCl, T = 298.1 K", "result": "-13.65±0.01"}, {"measurement": "log β, Zn2+ + L = ZnL (1:1)", "setting": "[1]; 0.15 M NaCl, T = 298.1 K", "result": "5.10±0.01"}, {"measurement": "log β, Zn2+ + OH- + L- = ZnOHL", "setting": "[1]; 0.15 M NaCl, T = 298.1 K", "result": "-3.64±0.02"}, {"measurement": "log β, Zn2+ + 2L = ZnL2", "setting": "[1]; 0.30 M NaCl, T = 298.1 K", "result": "9.11±0.01"}, {"measurement": "log β, Zn2+ + 2OH- + L- = ZnOH2L-", "setting": "[1]; 0.30 M NaCl, T = 298.1 K", "result": "-13.21±0.07"}, {"measurement": "log β, Zn2+ + L = ZnL (1:1)", "setting": "[1]; 0.30 M NaCl, T = 298.1 K", "result": "5.01±0.03"}, {"measurement": "log β, Zn2+ + OH- + L- = ZnOHL", "setting": "[1]; 0.30 M NaCl, T = 298.1 K", "result": "-4.22±0.08"}, {"measurement": "log β, Zn2+ + 2L = ZnL2", "setting": "[1]; 0.70 M NaCl, T = 298.1 K", "result": "8.79±0.01"}, {"measurement": "log β, Zn2+ + 2OH- + L- = ZnOH2L-", "setting": "[1]; 0.70 M NaCl, T = 298.1 K", "result": "-14.07±0.02"}, {"measurement": "log β, Zn2+ + L = ZnL (1:1)", "setting": "[1]; 0.70 M NaCl, T = 298.1 K", "result": "4.87±0.01"}, {"measurement": "log β, Zn2+ + OH- + L- = ZnOHL", "setting": "[1]; 0.70 M NaCl, T = 298.1 K", "result": "-4.07±0.02"}, {"measurement": "stability of the 1:1 zinc(II) species below/above the equivalent PYR and GLY complexes", "setting": "[1]; 1:1 zinc(II) complex", "result": "3.5–4 logβ units"}, {"measurement": "log β, Zn2+ + 2L = ZnL2", "setting": "[1]; 1.00 M NaCl, T = 298.1 K", "result": "8.79±0.01"}, {"measurement": "log β, Zn2+ + 2OH- + L- = ZnOH2L-", "setting": "[1]; 1.00 M NaCl, T = 298.1 K", "result": "-13.96±0.01"}, {"measurement": "log β, Zn2+ + L = ZnL (1:1)", "setting": "[1]; 1.00 M NaCl, T = 298.1 K", "result": "4.82±0.01"}, {"measurement": "log β, Zn2+ + OH- + L- = ZnOHL", "setting": "[1]; 1.00 M NaCl, T = 298.1 K", "result": "-4.41±0.04"}, {"measurement": "decrease of the 1:1 zinc(II) stability constant", "setting": "[1]; between 0.00 and 1.00 M NaCl", "result": 0.79, "unit": "logβ units"}, {"measurement": "decrease of the 1:1 zinc(II) stability constant", "setting": "[1]; between 0.05 and 1.00 M NaCl", "result": 14, "unit": "%"}, {"measurement": "logβ0, Zn2+ + 2L = ZnL2", "setting": "[1]; intrinsic, modified Extended Debye–Hückel fit (direct), T = 298.1 K", "result": "10.021±0.001"}, {"measurement": "C, Zn2+ + 2L = ZnL2", "setting": "[1]; [3]", "result": "-0.052±0.002"}, {"measurement": "C, Zn2+ + 2OH- + L- = ZnOH2L-", "setting": "[1]; [3]", "result": "0.571±0.017"}, {"measurement": "C, Zn2+ + OH- + L- = ZnOHL", "setting": "[1]; [3]", "result": "1.2095±0.027"}, {"measurement": "log β, H+ + L = HL", "setting": "[2]; 0.05 M NaCl", "result": "9.28 ± 0.01"}, {"measurement": "log β, H+ + L = HL", "setting": "[2]; 0.15 M NaCl", "result": "9.06 ± 0.01"}, {"measurement": "log β, H+ + L = HL", "setting": "[2]; 0.30 M NaCl", "result": "9.10 ± 0.01"}, {"measurement": "log β, H+ + L = HL", "setting": "[2]; 0.70 M NaCl", "result": "9.04 ± 0.01"}, {"measurement": "log β, H+ + L = HL", "setting": "[2]; 1.00 M NaCl", "result": "9.07 ± 0.01"}, {"measurement": "logβ^0, H+ + L = HL", "setting": "[2]; intrinsic, modified Extended Debye–Hückel fit (direct)", "result": "9.376 ± 0.001"}, {"measurement": "C, H+ + L = HL", "setting": "[2]; [3]", "result": "0.085 ± 0.001"}]}
